{
  "source": "EPA's ToxValDB 9.5",
  "key": {"[1]": {"test_system": "Rattus norvegicus", "details": "oral"}, "[2]": {"test_system": "Rattus norvegicus", "details": "for LEL: uterotrophic, Active; for LOEL / NOEL: Hershberger, duration: 10 days"}, "[3]": {"test_system": "Rattus norvegicus", "details": "for NOAEL: reproduction developmental, duration: 8 weeks, Sprague-Dawley"}, "[4]": {"test_system": "Oryctolagus sp.", "details": "acute, dermal, New Zealand"}, "[5]": {"test_system": "Rattus norvegicus", "details": "M/F; for LEL / NOEL: duration: 2 years, diet"}, "[6]": {"test_system": "Mus musculus", "details": "subchronic; duration: 13 weeks; inhalation; M/F; B6C3F1; neurological"}, "[7]": {"test_system": "Rattus norvegicus", "details": "for NOAEL: oral, hepatic"}, "[8]": {"details": "subchronic, oral, gavage, epithelial hyperplasia of the forestomach"}, "[9]": {"details": "chronic, oral, reduced body weight gain and food consumption"}, "[10]": {"details": "short-term, duration: 28 days, gavage, M, Sprague-Dawley, Body Weight Changes: decrease + Food Consumption: decrease + Relative Organ Weight: Thyroid increase"}, "[11]": {"details": "oral, gavage, Sprague-Dawley, active + Negative + Antiandrogenic + anti-androgenic + negative"}, "[12]": {"details": "chronic, oral, reduced body weight (males), liver cell vacuolation, cholinesterase inhibition"}},
  "note": "“And” between values parts separate entries of the source, which are not always exact repeats. Equal entries are not always repeated.",
  "data": [
    {"smiles": "CC(C)Oc1ccc2c(=O)c(-c3ccccc3)coc2c1", "note": "[Ipriflavone]", "values": [
      {"measurement": "NOEL", "setting": "[1]; subchronic, duration: 35 days, gavage, Sprague-Dawley", "result": "> 3000", "unit": "mg/kg-day"},
      {"measurement": "LEL", "setting": "[2]; duration: 3 days, oral", "result": 200, "unit": "mg/day"}
    ]},
    {"smiles": "CC(C)CCCCCCCOP(OCCCCCCCC(C)C)OCCCCCCCC(C)C", "note": "[Isodecyl phosphite]", "values": [
      {"measurement": "LC50", "setting": "[3]; acute, Inhalation, Sherman Wistar", "result": "> 12.6", "unit": "mg/L"},
      {"measurement": "LD50", "setting": "[3]; acute, oral, gavage, Sherman Wistar", "result": "> 5000", "unit": "mg/kg"},
      {"measurement": "NOAEL", "setting": "[3]; oral, gavage, generation: F0", "result": "≥ 1000", "unit": "mg/kg-day"},
      {"measurement": "NOAEL", "setting": "[3]; oral, gavage, generation: F1", "result": "≥ 1000", "unit": "mg/kg-day"},
      {"measurement": "LD50", "setting": "[4]", "result": "> 5000", "unit": "mg/kg"}
    ]},
    {"smiles": "CBr", "note": "[Methyl bromide]", "values": [
      {"measurement": "LOAEL", "setting": "[5]; chronic, duration: 29 months, inhalation, degenerative and proliferative lesions of the olfactory epithelium of the nasal cavity", "result": 11.7, "unit": "mg/m3"},
      {"measurement": "LOAEL", "setting": "[5]; [8]", "result": 7.1, "unit": "mg/kg-day"},
      {"measurement": "NOAEL", "setting": "[5]; [8]", "result": 1.4, "unit": "mg/kg-day"},
      {"measurement": "LOAEL", "setting": "[6]", "result": 38.8, "unit": "mg/m3"},
      {"measurement": "LOAEL", "setting": "[7]; chronic, duration: 129 weeks, inhalation, M/F, Wistar, respiratory", "result": 12, "unit": "mg/m3"}
    ]},
    {"smiles": "CCCCCCCCCC(=O)O[C@H]1CC[C@H]2[C@@H]3CCC4=CC(=O)CC[C@@H]4[C@H]3CC[C@]12C", "note": "[Nandrolone decanoate]", "values": [
      {"measurement": "LOEL", "setting": "[2]; injection, intramuscular, Wistar, active + Androgenic + androgenic", "result": 1.5, "unit": "mg/kg-day"}
    ]},
    {"smiles": "CCCCCCCC=O", "note": "[Octanal]", "values": [
      {"measurement": "LD50", "setting": "[4]; occlusive", "result": 5210, "unit": "mg/kg"}
    ]},
    {"smiles": "CNC(=O)ON=C(SC)C(=O)N(C)C", "note": "[Oxamyl]", "values": [
      {"measurement": "NOEL", "setting": "[2]; oral, gavage, Sprague-Dawley, inactive + Negative + Negative + neither + negative", "result": 0.5, "unit": "mg/kg-day"},
      {"measurement": "LEL", "setting": "[5]; [9]", "result": 5, "unit": "mg/kg-day"},
      {"measurement": "NOEL", "setting": "[5]; [9]", "result": 2.5, "unit": "mg/kg-day"}
    ]},
    {"smiles": "O=C1OC(c2ccc(O)cc2)(c2ccc(O)cc2)c2ccccc21", "note": "[Phenolphthalein]", "values": [
      {"measurement": "NOAEL", "setting": "[1]; [10]", "result": "< 200", "unit": "mg/kg-day"},
      {"measurement": "NOEL", "setting": "[1]; [10]", "result": "< 200", "unit": "mg/kg-day"},
      {"measurement": "NOEL", "setting": "[1]; subchronic, duration: 13 weeks, diet, F, Fischer 344, Body Weight Changes: decrease + Absolute Organ Weight: Liver + Relative Organ Weight: Right kidney increase, Liver increase", "result": 800, "unit": "mg/kg-day"},
      {"measurement": "NOEL", "setting": "[1]; subchronic, duration: 13 weeks, diet, M/F, Fischer 344, Body Weight Changes: decrease + Absolute Organ Weight: Liver + Relative Organ Weight: Right kidney increase, Liver increase", "result": 576, "unit": "mg/kg-day"},
      {"measurement": "LEL", "setting": "[2]; duration: 2 days, injection, subcutaneous", "result": 1, "unit": "mg/day"}
    ]},
    {"smiles": "COP(=S)(OC)SCN1C(=O)c2ccccc2C1=O", "note": "[Phosmet]", "values": [
      {"measurement": "LOEL", "setting": "[2]; [11]", "result": 25, "unit": "mg/kg-day"},
      {"measurement": "NOEL", "setting": "[2]; [11]", "result": "20 mg/kg-day and 15 mg/kg-day"},
      {"measurement": "LEL", "setting": "[5]; [12]", "result": 20, "unit": "mg/kg-day"},
      {"measurement": "NOEL", "setting": "[5]; [12]", "result": 2, "unit": "mg/kg-day"}
    ]},
    {"smiles": "C[C@H]1CCC[C@H](O)CCCCCc2cc(O)cc(O)c2C(=O)O1", "note": "[Zearalanol]", "values": [
      {"measurement": "LEL", "setting": "[2]; duration: 3 days, oral", "result": 0.03, "unit": "mg/day"}
    ]},
    {"smiles": "ClC1C(Cl)C(Cl)C(Cl)C(Cl)C1Cl", "note": "(stereo not drawn) [alpha-1,2,3,4,5,6-Hexachlorocyclohexane]", "values": [
      {"measurement": "NOAEL", "setting": "[7]; chronic, duration: 107 weeks, diet, M/F, Wistar", "result": 0.9, "unit": "mg/kg-day"},
      {"measurement": "NOAEL", "setting": "[7]; short-term, duration: 28 days, gavage, M, Fischer 344", "result": 2, "unit": "mg/kg-day"}
    ]}
  ]
}
